According to ChEMBL document CHEMBL1201862, “PubChem BioAssay data set” (2004):
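Values below derive from 48-hour exposures of cells grown in 96-well plates, with endpoints linearly interpolated between the two concentrations bracketing the appropriate inhibition level. Here, GI50 denotes the concentration required for 50% inhibition of growth.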 Calls of active or inactive are those of the source. No stated cut-off is given here; in the data, active = GI50 up to about 1.1 µM and inactive = higher.

Key:
Assay in all cases: NCI anticancer screen, dose series, 48 h
786-0 = system: 786-0
A498 = system: A498
ACHN = system: ACHN
CCRF-CEM = system: CCRF-CEM
COLO 205 = system: COLO 205
DLD-1 = system: DLD-1
HCT-116 = system: HCT-116
HOP-92 = system: HOP-92
HT-29 = system: HT-29
OVCAR-5 = system: OVCAR-5
RPMI-8226 = system: RPMI-8226
SF-295 = system: SF-295
SNB-19 = system: SNB-19
TK-10 = system: TK-10
U-251 = system: U-251
SF-268 = system: SF-268

Measured: GI50

O=c1[nH]ccc2c1ccn2C1CC(O)C(CO)O1 (configuration not stated)
inactive: 786-0 > 100 µM | A498 > 100 µM | ACHN > 100 µM | CCRF-CEM > 100 µM | COLO 205 > 100 µM | DLD-1 > 100 µM | HCT-116 > 100 µM | HOP-92 > 100 µM | HT-29 > 100 µM | OVCAR-5 > 100 µM | RPMI-8226 > 100 µM | SF-295 > 100 µM | SNB-19 > 100 µM | TK-10 > 100 µM | U-251 > 100 µM

COC(OC)c1cc2c(cc1C(=O)[C@@]13CCC[C@@H]1NC(=O)O3)OCO2
inactive: 786-0 > 100 µM | A498 > 100 µM | ACHN > 100 µM | CCRF-CEM > 100 µM | DLD-1 79.6 µM | HCT-116 > 100 µM | HOP-92 > 100 µM | HT-29 > 100 µM | OVCAR-5 > 100 µM | SF-268 > 100 µM | SF-295 > 100 µM | SNB-19 91.2 µM | TK-10 > 100 µM | U-251 > 100 µM

c1ccc2[nH]c(CNc3ccc(C4C[Se]N=N4)cc3)nc2c1 (configuration not stated)
inactive: 786-0 > 100 µM | A498 > 100 µM | ACHN > 100 µM | CCRF-CEM 25.7 µM | COLO 205 48.6 µM | DLD-1 > 100 µM | HCT-116 41.2 µM | HOP-92 > 100 µM | HT-29 > 100 µM | OVCAR-5 > 100 µM | RPMI-8226 25.6 µM | SF-268 47.3 µM | SF-295 28.4 µM | SNB-19 84.1 µM | TK-10 > 100 µM | U-251 55.8 µM

O=C(O)CC[C@H](NC(=O)c1ccc(-n2nc3ccc(=O)cc-3[nH]c2=O)cc1)C(=O)O
inactive: 786-0 > 100 µM | A498 > 100 µM | ACHN > 100 µM | CCRF-CEM > 100 µM | COLO 205 > 100 µM | DLD-1 > 100 µM | HCT-116 > 100 µM | HOP-92 > 100 µM | HT-29 > 100 µM | OVCAR-5 > 100 µM | RPMI-8226 > 100 µM | SF-268 > 100 µM | SF-295 > 100 µM | SNB-19 > 100 µM | TK-10 > 100 µM | U-251 > 100 µM

O=C1C=C(Nc2ccccc2C(=O)CC(=O)C(=O)Nc2cccc([N+](=O)[O-])c2)c2ccccc2C1=O
inactive: 786-0 29.4 µM | A498 > 100 µM | ACHN > 100 µM | CCRF-CEM 3.3 µM | COLO 205 > 100 µM | DLD-1 21.9 µM | HCT-116 20.7 µM | HOP-92 37.1 µM | HT-29 > 100 µM | OVCAR-5 > 100 µM | RPMI-8226 5.58 µM | SF-268 22.2 µM | SNB-19 23.3 µM | TK-10 > 100 µM | U-251 32.4 µM

O=C1NCCS(=O)(=O)N[C@@H](CC2=CC=CCC2)C(=O)N2CCCC12 (some centres not stated)
inactive: 786-0 > 100 µM | A498 > 100 µM | ACHN > 100 µM | CCRF-CEM > 100 µM | COLO 205 > 100 µM | DLD-1 > 100 µM | HCT-116 > 100 µM | HOP-92 > 100 µM | HT-29 > 100 µM | OVCAR-5 > 100 µM | RPMI-8226 > 100 µM | SF-268 > 100 µM | SF-295 > 100 µM | SNB-19 > 100 µM | TK-10 > 100 µM | U-251 > 100 µM

CC1OC(n2cc(F)c(=O)[nH]c2=O)CCC1=O (configuration not stated)
inactive: 786-0 > 100 µM | A498 30.4 µM | ACHN > 100 µM | CCRF-CEM > 100 µM | COLO 205 79.4 µM | DLD-1 52.5 µM | HCT-116 44.9 µM | HOP-92 > 100 µM | HT-29 91 µM | OVCAR-5 > 100 µM | RPMI-8226 49.7 µM | SF-268 > 100 µM | SF-295 > 100 µM | SNB-19 > 100 µM | TK-10 > 100 µM | U-251 > 100 µM

COc1cccc(OC)c1/C=N\N1C(=O)c2ccccc2C1=O
inactive: 786-0 31.3 µM | A498 > 100 µM | ACHN 47.4 µM | CCRF-CEM 33.6 µM | DLD-1 49 µM | HCT-116 33.5 µM | HOP-92 47.2 µM | HT-29 35.5 µM | OVCAR-5 > 100 µM | RPMI-8226 28.2 µM | SF-268 37.8 µM | SF-295 92.3 µM | SNB-19 > 100 µM | TK-10 57.7 µM

COc1ccc(N2C(=O)C3c4[nH]c5ccccc5c4C4CCC(C(C)(C)C)CC4C3C2=O)cc1OC (configuration not stated)
inactive: 786-0 17.8 µM | A498 19.9 µM | ACHN 22.1 µM | CCRF-CEM 27.7 µM | COLO 205 31.2 µM | DLD-1 15.1 µM | HCT-116 16.1 µM | HOP-92 20.5 µM | HT-29 33.9 µM | RPMI-8226 22.2 µM | SF-268 18.7 µM | SF-295 20.4 µM | SNB-19 26.2 µM | U-251 27.6 µM

CC#CC1C(OC(=O)c2ccccc2)CCCC1(CI)N=[N+]=[N-] (configuration not stated)
inactive: 786-0 > 100 µM | A498 > 100 µM | ACHN > 100 µM | CCRF-CEM 26.2 µM | COLO 205 > 100 µM | DLD-1 52.1 µM | HCT-116 32.8 µM | HOP-92 92.7 µM | HT-29 40.6 µM | OVCAR-5 > 100 µM | RPMI-8226 18.5 µM | SF-268 67 µM | SF-295 87.5 µM | TK-10 > 100 µM | U-251 59.7 µM

N#CC1=C(c2ccccc2)NN(Cc2ccccc2)C(c2ccc(Cl)cc2)CC1=O (configuration not stated)
inactive: 786-0 24.3 µM | A498 24.8 µM | ACHN 23.3 µM | CCRF-CEM 7.89 µM | COLO 205 36.1 µM | DLD-1 15.7 µM | HCT-116 18.7 µM | HOP-92 16.3 µM | HT-29 17.3 µM | OVCAR-5 34 µM | RPMI-8226 18.8 µM | SF-268 29.3 µM | SF-295 27.5 µM | SNB-19 22.5 µM | TK-10 42.8 µM | U-251 17.3 µM

CC1(C)COC2(OC1)C1=NS(=O)(=O)CC13CCC2C3(C)C (configuration not stated)
inactive: 786-0 > 100 µM | A498 > 100 µM | ACHN > 100 µM | CCRF-CEM > 100 µM | COLO 205 > 100 µM | DLD-1 > 100 µM | HCT-116 > 100 µM | HOP-92 > 100 µM | HT-29 > 100 µM | OVCAR-5 > 100 µM | RPMI-8226 > 100 µM | SF-268 > 100 µM | SF-295 > 100 µM | SNB-19 > 100 µM | TK-10 > 100 µM | U-251 > 100 µM

CN(C)C(=Nc1nc(N(C)C)s[s+]1)N(C)C
inactive: 786-0 > 100 µM | A498 > 100 µM | ACHN > 100 µM | CCRF-CEM > 100 µM | DLD-1 > 100 µM | HOP-92 > 100 µM | HT-29 > 100 µM | OVCAR-5 > 100 µM | RPMI-8226 > 100 µM | SF-268 > 100 µM | SF-295 > 100 µM | SNB-19 > 100 µM | TK-10 > 100 µM | U-251 > 100 µM
